Experimental data published in patent US8952024B2, “Herbicidal pyrimidone derivatives” (E I du Pont de Nemours and Company, priority 2009, dated 2015).

Legend:
Test in all cases: Test B pre-/postemergence plant response
Assay type in all cases: in vivo
[1] = test system: cocklebur (Xanthium strumarium)
Procedure, shortened: (§1)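 Visual injury, 0–100 scale (100 = complete control), rated against controls after 13 to 15 days in greenhouse. Pre-emergence: seeds in loam/sand soil, treated at planting. Post-emergence: 1- to 4-leaf plants (2 to 18 cm) in peat/vermiculite medium. Compounds formulated in non-phytotoxic solvent with surfactant.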

[2] = test system: downy bromegrass (Bromus tectorum)
Procedure, shortened: as §1

[3] = test system: morningglory (Ipomoea coccinea)
Procedure, shortened: as §1

[4] = test system: blackgrass (Alopecurus myosuroides)
Procedure, shortened: as §1

kochia (Kochia scoparia) = test system: kochia (Kochia scoparia)
Procedure, shortened: as §1

wild oat (Avena fatua) = test system: wild oat (Avena fatua)
Procedure, shortened: as §1

[5] = test system: woolly cupgrass (Eriochloa villosa)
Procedure, shortened: as §1

[6] = test system: wheat (Triticum aestivum)
Procedure, shortened: as §1

[7] = test system: ragweed (common ragweed, Ambrosia elatior)
Procedure, shortened: as §1

[8] = test system: Italian ryegrass (Lolium multiflorum)
Procedure, shortened: as §1

[9] = test system: bermudagrass (Cynodon dactylon)
Procedure, shortened: as §1

[10] = test system: large crabgrass (Digitaria sanguinalis)
Procedure, shortened: as §1

[11] = test system: Surinam grass (Brachiaria decumbens)
Procedure, shortened: as §1

[12] = 62 g ai/ha, postemergence, 0 is no effect, 100 is complete control, 13 to 15 days
[13] = Postemergence, 31 g ai/ha, 0 to 100 scale (0 no effect, 100 complete control)
[14] = Postemergence, 125 g ai/ha, scale 0 to 100 (0 no effect, 100 complete control)
[15] = Postemergence, 250 g ai/ha, scale 0 to 100 (0 no effect, 100 complete control)
[16] = 250 g ai/ha, Preemergence, 0 to 100 scale
[17] = Preemergence, 31 g ai/ha, scale 0 to 100 (0 no effect, 100 complete control)
[18] = Preemergence, 62 g ai/ha, scale 0 to 100 (0 no effect, 100 complete control)
[19] = Preemergence, 125 g ai/ha, 0 to 100 scale
[20] = Postemergence, 31 g ai/ha, scale 0 to 100 (0 no effect, 100 complete control)
[21] = Postemergence, 62 g ai/ha, scale 0 (no effect) to 100 (complete control), 13 to 15 days
[22] = Postemergence, 125 g ai/ha, visual rating after 13 to 15 days, scale 0 (no effect) to 100 (complete control)
[23] = Postemergence, 250 g ai/ha, scale 0 to 100

## COCCn1c(-c2cccc(F)c2)ncc(C(=O)C2=C(O)CCCC2=O)c1=O [Compound 123]
[1]; [12]
  Cocklebur plant response rating (0 to 100 scale): 80
[1]; [13]
  Plant response rating, Cocklebur: 65
[1]; [14]
  Plant response rating, Cocklebur: 100
[1]; [15]
  Plant response rating, Cocklebur: 100
[2]; [12]
  Bromegrass, Downy plant response rating (0 to 100 scale): 5
[2]; [13]
  Plant response rating, Bromegrass, Downy: 0
[2]; [14]
  Plant response rating, Bromegrass, Downy: 10
[2]; [15]
  Plant response rating, Bromegrass, Downy: 45
[3]; [12]
  Morningglory plant response rating (0 to 100 scale): 98
[3]; [13]
  Plant response rating, Morningglory: 70
[3]; [14]
  Plant response rating, Morningglory: 100
[3]; [15]
  Plant response rating, Morningglory: 100
[4]; [12]
  Blackgrass plant response rating (0 to 100 scale): 20
[4]; [13]
  Plant response rating, Blackgrass: 20
[4]; [14]
  Plant response rating, Blackgrass: 40
[4]; [15]
  Plant response rating, Blackgrass: 80
Kochia (Kochia scoparia); [12]
  Kochia plant response rating (0 to 100 scale): 65
Kochia (Kochia scoparia); [13]
  Plant response rating, Kochia: 60
Kochia (Kochia scoparia); [14]
  Plant response rating, Kochia: 80
Kochia (Kochia scoparia); [15]
  Plant response rating, Kochia: 100
Wild oat (Avena fatua); [12]
  Oat, Wild plant response rating (0 to 100 scale): 5
Wild oat (Avena fatua); [13]
  Plant response rating, Oat, Wild: 0
Wild oat (Avena fatua); [14]
  Plant response rating, Oat, Wild: 30
Wild oat (Avena fatua); [15]
  Plant response rating, Oat, Wild: 60
[5]; [12]
  Cupgrass, Woolly plant response rating (0 to 100 scale): 45
[5]; [13]
  Plant response rating, Cupgrass, Woolly: 25
[5]; [14]
  Plant response rating, Cupgrass, Woolly: 75
[5]; [15]
  Plant response rating, Cupgrass, Woolly: 90
[6]; [12]
  Wheat plant response rating (0 to 100 scale): 15
[6]; [13]
  Plant response rating, Wheat: 10
[6]; [14]
  Plant response rating, Wheat: 15
[7]; [12]
  Ragweed plant response rating (0 to 100 scale): 85
[7]; [13]
  Plant response rating, Ragweed: 70
[7]; [14]
  Plant response rating, Ragweed: 95
[7]; [15]
  Plant response rating, Ragweed: 98
[8]; [12]
  Ryegrass, Italian plant response rating (0 to 100 scale): 5
[8]; [13]
  Plant response rating, Ryegrass, Italian: 0
[8]; [14]
  Plant response rating, Ryegrass, Italian: 5
[8]; [15]
  Plant response rating, Ryegrass, Italian: 50
[9]; [12]
  Bermudagrass plant response rating (0 to 100 scale): 85
[9]; [13]
  Plant response rating, Bermudagrass: 80
[9]; [14]
  Plant response rating, Bermudagrass: 90
[9]; [15]
  Plant response rating, Bermudagrass: 98
[10]; [12]
  Crabgrass, Large plant response rating (0 to 100 scale): 80
[10]; [13]
  Plant response rating, Crabgrass, Large: 70
[10]; [14]
  Plant response rating, Crabgrass, Large: 85
[10]; [15]
  Plant response rating, Crabgrass, Large: 90
[11]; [12]
  Surinam Grass plant response rating (0 to 100 scale): 75
[11]; [13]
  Plant response rating, Surinam Grass: 25
[11]; [14]
  Plant response rating, Surinam Grass: 85
[11]; [15]
  Plant response rating, Surinam Grass: 85

## O=C1CCCC(O)=C1C(=O)c1cnc(-c2ccccc2)n(-c2cccc(Br)c2)c1=O [Compound 38]
[1]; [16]
  Plant response rating, Cocklebur: 90
[1]; [17]
  Plant response rating, Cocklebur: 0
[1]; [18]
  Plant response rating, Cocklebur: 10
[1]; [19]
  Cocklebur plant response rating: 25
[2]; [16]
  Plant response rating, Bromegrass, Downy: 40
[2]; [20]
  Plant response rating, Bromegrass, Downy: 50
[2]; [21]
  Plant response rating, Bromegrass, Downy: 70
[2]; [22]
  Plant response rating, Bromegrass, Downy: 85
[2]; [23]
  Bromegrass, Downy plant response rating: 85
[2]; [17]
  Plant response rating, Bromegrass, Downy: 0
[2]; [18]
  Plant response rating, Bromegrass, Downy: 0
[2]; [19]
  Bromegrass, Downy plant response rating: 5
[3]; [16]
  Plant response rating, Morningglory: 100
[3]; [21]
  Plant response rating, Morningglory: 70
[3]; [22]
  Plant response rating, Morningglory: 75
[3]; [17]
  Plant response rating, Morningglory: 0
[3]; [18]
  Plant response rating, Morningglory: 0
[3]; [19]
  Morningglory plant response rating: 0
[4]; [16]
  Plant response rating, Blackgrass: 40
[4]; [20]
  Plant response rating, Blackgrass: 5
[4]; [21]
  Plant response rating, Blackgrass: 15
[4]; [22]
  Plant response rating, Blackgrass: 15
[4]; [23]
  Blackgrass plant response rating: 40
[4]; [17]
  Plant response rating, Blackgrass: 0
[4]; [18]
  Plant response rating, Blackgrass: 5
[4]; [19]
  Blackgrass plant response rating: 30
Kochia (Kochia scoparia); [21]
  Plant response rating, Kochia: 80
Kochia (Kochia scoparia); [22]
  Plant response rating, Kochia: 100
Kochia (Kochia scoparia); [23]
  Kochia plant response rating: 100
Wild oat (Avena fatua); [16]
  Plant response rating, Oat, Wild: 20
Wild oat (Avena fatua); [21]
  Plant response rating, Oat, Wild: 75
Wild oat (Avena fatua); [22]
  Plant response rating, Oat, Wild: 80
Wild oat (Avena fatua); [17]
  Plant response rating, Oat, Wild: 0
Wild oat (Avena fatua); [19]
  Oat, Wild plant response rating: 0
[5]; [16]
  Plant response rating, Cupgrass, Woolly: 80
[5]; [20]
  Plant response rating, Cupgrass, Woolly: 80
[5]; [21]
  Plant response rating, Cupgrass, Woolly: 90
[5]; [22]
  Plant response rating, Cupgrass, Woolly: 95
[5]; [23]
  Cupgrass, Woolly plant response rating: 100
[5]; [17]
  Plant response rating, Cupgrass, Woolly: 0
[5]; [18]
  Plant response rating, Cupgrass, Woolly: 10
[5]; [19]
  Cupgrass, Woolly plant response rating: 60
[6]; [16]
  Plant response rating, Wheat: 5
[6]; [21]
  Plant response rating, Wheat: 20
[6]; [22]
  Plant response rating, Wheat: 40
[6]; [17]
  Plant response rating, Wheat: 0
[6]; [19]
  Wheat plant response rating: 0
[7]; [16]
  Plant response rating, Ragweed: 95
[7]; [21]
  Plant response rating, Ragweed: 80
[7]; [22]
  Plant response rating, Ragweed: 80
[7]; [17]
  Plant response rating, Ragweed: 40
[7]; [19]
  Ragweed plant response rating: 80
[8]; [16]
  Plant response rating, Ryegrass, Italian: 40
[8]; [21]
  Plant response rating, Ryegrass, Italian: 50
[8]; [22]
  Plant response rating, Ryegrass, Italian: 60
[8]; [17]
  Plant response rating, Ryegrass, Italian: 0
[8]; [19]
  Ryegrass, Italian plant response rating: 5
[9]; [16]
  Plant response rating, Bermudagrass: 100
[9]; [20]
  Plant response rating, Bermudagrass: 98
[9]; [21]
  Plant response rating, Bermudagrass: 100
[9]; [22]
  Plant response rating, Bermudagrass: 100
[9]; [23]
  Bermudagrass plant response rating: 100
[9]; [17]
  Plant response rating, Bermudagrass: 98
[9]; [18]
  Plant response rating, Bermudagrass: 100
[9]; [19]
  Bermudagrass plant response rating: 100
[10]; [16]
  Plant response rating, Crabgrass, Large: 100
[10]; [20]
  Plant response rating, Crabgrass, Large: 90
[10]; [21]
  Plant response rating, Crabgrass, Large: 90
[10]; [22]
  Plant response rating, Crabgrass, Large: 98
[10]; [23]
  Crabgrass, Large plant response rating: 100
[10]; [17]
  Plant response rating, Crabgrass, Large: 60
[10]; [18]
  Plant response rating, Crabgrass, Large: 90
[10]; [19]
  Crabgrass, Large plant response rating: 100
[11]; [16]
  Plant response rating, Surinam Grass: 80
[11]; [21]
  Plant response rating, Surinam Grass: 85
[11]; [22]
  Plant response rating, Surinam Grass: 90
[11]; [17]
  Plant response rating, Surinam Grass: 40
[11]; [19]
  Surinam Grass plant response rating: 65
